Test results as given in patent publication US9765105B2, “Macrolide compound” (Pulike Biological Engineering, Inc., priority 2013, dated 2017).

Columns and labels:
Assay in all cases: in vitro susceptibility, MIC by mini broth dilution
Format in all cases: cell-based
[1] = tested on: Staphylococcus aureus CVCC26003; conditions: strain CVCC26003
Description: (§1) in vitro tests of susceptibility of the compounds according to the present disclosure against bacterial strains commonly used in laboratories. In accordance with the Performance Standards for Antimicrobial Disk Susceptibility Tests: Approved Standard published by the US National Committee for Clinical Laboratory Standards, the antibacterial activities of compounds prepared according to examples 5 to 187 were tested. The MICs (minimum inhibitory concentration) of the medicaments prepared according to the examples on the following bacterial strains were measured through mini broth dilution technique. Staphylococcus aureus CVCC26003, Streptococcus equines CVCC556. Actinobacillus pleuropneumoniae CVCC262, Haemophilus parasuis, and Pasteurella multocida CVCC399, which were purchased from the Control Institute of Veterinary Bioproducts and Pharmaceuticals, China. 4.1.1 Culture Medium for Staphylococcus aureus CVCC26003 Liquid culture medium: CAMHB. […] Solid culture medium: NINA prepared according to the specification of the final product. The strains were taken out of a refrigerator at −20° C. to be revived, and were spreaded by streaking on the solid culture medium with an inoculating loop. The inoculated culture medium was cultured at 35° C. in a constant temperature incubator for 20 h. […] were selected from a well-grown culture plate and streaked on the solid culture medium. The inoculated culture medium was cultured at 35° C. in the constant temperature incubator for 20 h. […] A 96-well plate was used, and 100 μl of DMSO was added into each of wells 2 to 11, and 200 μl of ready-prepared medicament solution was added into the 1st well, 100 μl of the medicament solution was extracted from the 1st well and added into the 2nd well. Double dilution was performed until the 11th well, thereby forming 11 gradients. In this case, compound of parent plate was prepared. 3 μl of double diluted medicament solution was extracted with a 12-channel pipettor and added into wells 1-11 of a new disposable 96-well culture plate. The 12th well thereof is a control well. For each medicament, there are two adjacent rows which are parallel. The transferred compound plate was reserved for later use. […] The dilution ratio was recorded, and the bacterial liquid for the tests was diluted according to the recorded dilution ratio. Subsequently, the bacterial suspension and the liquid culture medium were diluted in the proportion of 1:200. The diluted solution was reserved for later use.

Haemophilus parasuis = tested on: Haemophilus parasuis
Description: as §1, with “China. 4.1.2” for “China. 4.1.1”, “Culture Media” for “Culture Medium”, “for the Rest Four Bacterial Strains.” for “for Staphylococcus aureus CVCC26003”, “medium:” for “medium: CAMHB.”, “medium: […]” for “medium: NINA prepared according to the specification of the final product.”

[2] = tested on: Pasteurella multocida CVCC399; conditions: strain CVCC399
Description: as §1, with “China. 4.1.2” for “China. 4.1.1”, “Culture Media” for “Culture Medium”, “for the Rest Four Bacterial Strains.” for “for Staphylococcus aureus CVCC26003”, “medium:” for “medium: CAMHB.”, “medium: […]” for “medium: NINA prepared according to the specification of the final product.”

[3] = tested on: Actinobacillus pleuropneumoniae CVCC262; conditions: strain CVCC262
Description: as §1, with “China. 4.1.2” for “China. 4.1.1”, “Culture Media” for “Culture Medium”, “for the Rest Four Bacterial Strains.” for “for Staphylococcus aureus CVCC26003”, “medium:” for “medium: CAMHB.”, “medium: […]” for “medium: NINA prepared according to the specification of the final product.”

[4] = tested on: Streptococcus equines CVCC556; conditions: strain CVCC556
Description: as §1, with “China. 4.1.2” for “China. 4.1.1”, “Culture Media” for “Culture Medium”, “for the Rest Four Bacterial Strains.” for “for Staphylococcus aureus CVCC26003”, “medium:” for “medium: CAMHB.”, “medium: […]” for “medium: NINA prepared according to the specification of the final product.”

Which “MIC values, Staphylococcus aureus CVCC26003” value [1] does the source give for `CCC1OC(=O)C(C)C(OC2CC(C)(OC)C(O)(CNCNCc3ccc(C=O)cc3)C(C)O2)C(C)C(OC2OC(C)CC(N(C)C)C2O)C(C)(O)CC(C)NCC(C)C(O)C1(C)O` [syzx-39, (2R,3S,4R,5S,8R,10R,11R,12S,13S,14R)-13-[(2,6-dideoxy-3-C-methyl-3-O-methyl-4-C-[[[(4-formyl-benzyl-amino)-methyl]amino]-methyl]-α-L-ribopyranosyl)oxy]-2-ethyl-3,4,10-trihydroxy-3,5,8,10,12,14-hexamethyl-11-[[3,4,6-trideoxy-3-(dimethylamino)-β-D-xylo-hexopyranosy]oxy]-1-oxa-7-azacyclopentadecan-15-one] here?
Its value is 0.25 ug/mi.

What about the “MIC values, Haemophilus parasuis” value (Haemophilus parasuis) of the same molecule?
The value was 0.25 ug/mi.

And the “MIC values, Pasteurella multocida CVCC399” value [2]?
Its value is 0.5 ug/mi.

And the “MIC values, Actinobacillus pleuropneumoniae CVCC262” value [3]?
The value was 0.25 ug/mi.

What about the “MIC values, Streptococcus equines CVCC556” value [4] of the same molecule?
The value was 0.5 ug/mi.

With `C#CCNC[C@]1(O)[C@H](C)O[C@@H](O[C@H]2[C@H](C)[C@@H](O[C@@H]3O[C@H](C)C[C@H](N(C)C)[C@H]3O)[C@](C)(O)C[C@@H](C)NC[C@H](C)[C@@H](O)[C@](C)(O)[C@@H](CC)OC(=O)[C@@H]2C)C[C@@]1(C)OC` [syzx-40, (2R,3S,4R,5S,8R,10R,11R,12S,13S,14R)-13-[(2,6-dideoxy-3-C-methyl-3-O-methyl-4-C-[[propargyl-amino]-methyl]-α-L-ribopyranosyl)oxy]-2-ethyl-3,4,10-trihydroxy-3,5,8,10,12,14-hexamethyl-11-[[3,4,6-trideoxy-3-(dimethylamino)-β-D-xylo-hexopyranosy]oxy]-1-oxa-7-azacyclopentadecan-15-one] as the molecule, how does the “MIC values, Staphylococcus aureus CVCC26003” value [1] read?
Its value is 0.5 ug/mi.

And the “MIC values, Haemophilus parasuis” value (Haemophilus parasuis)?
The value was 0.5 ug/mi.

What about the “MIC values, Pasteurella multocida CVCC399” value [2] of the same molecule?
Its value is 1 ug/mi.

What about the “MIC values, Actinobacillus pleuropneumoniae CVCC262” value [3] of the same molecule?
Its value is 16 ug/mi.

And the “MIC values, Streptococcus equines CVCC556” value [4]?
The value was 0.5 ug/mi.

Which “MIC values, Staphylococcus aureus CVCC26003” value [1] does the source give for `CCC(NC[C@]1(O)[C@H](C)O[C@@H](O[C@H]2[C@H](C)[C@@H](O[C@@H]3O[C@H](C)C[C@H](N(C)C)[C@H]3O)[C@](C)(O)C[C@@H](C)NC[C@H](C)[C@@H](O)[C@](C)(O)[C@@H](CC)OC(=O)[C@@H]2C)C[C@@]1(C)OC)C(=O)O` (stereo partly drawn) [syzx-41, (2R,3S,4R,5S,8R,10R,11R,12S,13S,14R)-13-[(2,6-dideoxy-3-C-methyl-3-O-methyl-4-C-[[butyrate-2-amino]-methyl]-α-L-ribopyranosyl)oxy]-2-ethyl-3,4,10-trihydroxy-3,5,8,10,12,14-hexamethyl-11-[[3,4,6-trideoxy-3-(dimethylamino)-β-D-xylo-hexopyranosy]oxy]-1-oxa-7-azacyclopentadecan-15-one] here?
Its value is 2 ug/mi.

And the “MIC values, Haemophilus parasuis” value (Haemophilus parasuis)?
Its value is 1 ug/mi.

What about the “MIC values, Pasteurella multocida CVCC399” value [2] of the same molecule?
Its value is 4 ug/mi.

What about the “MIC values, Actinobacillus pleuropneumoniae CVCC262” value [3] of the same molecule?
The value was 1 ug/mi.

And the “MIC values, Streptococcus equines CVCC556” value [4]?
Its value is 0.5 ug/mi.

Which “MIC values, Staphylococcus aureus CVCC26003” value [1] does the source give for `CC[C@H]1OC(=O)[C@H](C)[C@@H](O[C@H]2C[C@@](C)(OC)[C@](O)(CNCCCC(=O)O)[C@H](C)O2)[C@H](C)[C@@H](O[C@@H]2O[C@H](C)C[C@H](N(C)C)[C@H]2O)[C@](C)(O)C[C@@H](C)NC[C@H](C)[C@@H](O)[C@]1(C)O` [syzx-42, (2R,3S,4R,5S,8R,10R,11R,12S,13S,14R)-13-[(2,6-dideoxy-3-C-methyl-3-O-methyl-4-C-[[butyrate-4-amino]-methyl]-α-L-ribopyranosyl)oxy]-2-ethyl-3,4,10-trihydroxy-3,5,8,10,12,14-hexamethyl-11-[[3,4,6-trideoxy-3-(dimethylamino)-β-D-xylo-hexopyranosy]oxy]-1-oxa-7-azacyclopentadecan-15-one] here?
The value was 2 ug/mi.

What about the “MIC values, Haemophilus parasuis” value (Haemophilus parasuis) of the same molecule?
The value was 1 ug/mi.

What about the “MIC values, Pasteurella multocida CVCC399” value [2] of the same molecule?
The value was 2 ug/mi.

What about the “MIC values, Actinobacillus pleuropneumoniae CVCC262” value [3] of the same molecule?
The value was 1 ug/mi.

What about the “MIC values, Streptococcus equines CVCC556” value [4] of the same molecule?
The value was 1 ug/mi.

`CC[C@H]1OC(=O)[C@H](C)[C@@H](O[C@H]2C[C@@](C)(OC)[C@](O)(CNCCCO)[C@H](C)O2)[C@H](C)[C@@H](O[C@@H]2O[C@H](C)C[C@H](N(C)C)[C@H]2O)[C@](C)(O)C[C@@H](C)NC[C@H](C)[C@@H](O)[C@]1(C)O` [syzx-46, (2R,3S,4R,5S,8R,10R,11R,12S,13S,14R)-13-[(2,6-dideoxy-3-C-methyl-3-O-methyl-4-C-[(3-hydroxy-propylamino)-methyl]-α-L-ribopyranosyl)oxy]-2-ethyl-3,4,10-trihydroxy-3,5,8,10,12,14-hexamethyl-11-[[3,4,6-trideoxy-3-(dimethylamino)-β-D-xylo-hexopyranosy]oxy]-1-oxa-7-azacyclopentadecan-15-one] was tested. Which “MIC values, Staphylococcus aureus CVCC26003” value [1] did it give?
The value was 1 ug/mi.

What about the “MIC values, Haemophilus parasuis” value (Haemophilus parasuis) of the same molecule?
Its value is “≦0.25 ug/mi”.

What about the “MIC values, Pasteurella multocida CVCC399” value [2] of the same molecule?
Its value is 4 ug/mi.

And the “MIC values, Actinobacillus pleuropneumoniae CVCC262” value [3]?
Its value is 32 ug/mi.

What about the “MIC values, Streptococcus equines CVCC556” value [4] of the same molecule?
Its value is 2 ug/mi.

With `CC[C@H]1OC(=O)[C@H](C)[C@@H](O[C@H]2C[C@@](C)(OC)[C@](O)(CNN3CCOCC3)[C@H](C)O2)[C@H](C)[C@@H](O[C@@H]2O[C@H](C)C[C@H](N(C)C)[C@H]2O)[C@](C)(O)C[C@@H](C)NC[C@H](C)[C@@H](O)[C@]1(C)O` [syzx-48, (2R,3S,4R,5S,8R,10R,11R,12S,13S,14R)-13-[(2,6-dideoxy-3-C-methyl-3-O-methyl-4-C-[(morpholin-4-yl-amino)-methyl]-α-L-ribopyranosyl)oxy]-2-ethyl-3,4,10-trihydroxy-3,5,8,10,12,14-hexamethyl-11-[[3,4,6-trideoxy-3-(dimethylamino)-β-D-xylo-hexopyranosy]oxy]-1-oxa-7-azacyclopentadecan-15-one] as the molecule, how does the “MIC values, Staphylococcus aureus CVCC26003” value [1] read?
Its value is 0.5 ug/mi.

And the “MIC values, Haemophilus parasuis” value (Haemophilus parasuis)?
Its value is “≦0.25 ug/mi”.

And the “MIC values, Pasteurella multocida CVCC399” value [2]?
The value was 1 ug/mi.

What about the “MIC values, Actinobacillus pleuropneumoniae CVCC262” value [3] of the same molecule?
Its value is 16 ug/mi.

What about the “MIC values, Streptococcus equines CVCC556” value [4] of the same molecule?
Its value is 0.5 ug/mi.

With `CC[C@H]1OC(=O)[C@H](C)[C@@H](OC2CC(C)(OC)C(O)(CNC(C)CC(=O)O)C(C)O2)[C@H](C)[C@@H](O[C@@H]2O[C@H](C)C[C@H](N(C)C)[C@H]2O)[C@](C)(O)C[C@@H](C)NC[C@H](C)[C@@H](O)[C@]1(C)O` (stereo partly drawn) [syzx-50, 3-({(2R,3S,4R,5S,8R,10R,11R,12S,13S,14R)-6-[-11-[[3,4,6-trideoxy-3-(dimethylamino)-β-D-xylo-hexopyranosy]oxy]-2-ethyl-3,4,10-trihydroxy-3,5,8,10,12,14-hexamethyl-1-oxa-7-azacyclopentadecan-15-one-13-yl-oxy]-3-hydroxy-4-methoxy-2,4-dimethyl-tetrahydropyran-3-yl-methyl}-amino)-butyric acid] as the molecule, how does the “MIC values, Staphylococcus aureus CVCC26003” value [1] read?
The value was 1 ug/mi.

What about the “MIC values, Haemophilus parasuis” value (Haemophilus parasuis) of the same molecule?
The value was 0.5 ug/mi.

What about the “MIC values, Pasteurella multocida CVCC399” value [2] of the same molecule?
Its value is 1 ug/mi.

And the “MIC values, Actinobacillus pleuropneumoniae CVCC262” value [3]?
The value was 0.5 ug/mi.

What about the “MIC values, Streptococcus equines CVCC556” value [4] of the same molecule?
The value was 1 ug/mi.
